{"source": "patent US6451805B1", "about": "“Substituted pyrazole derivatives for the treatment of cardiocirculatory diseases” (Bayer Aktiengesellschaft, priority 1999, dated 2002)", "key": {"anaesthetized rats": {"tested_on": "anaesthetized rats", "assay": "Blood pressure measurements in anaesthetized rats", "assay_type": "in vivo, rat", "conditions": "male Wistar rats, oral", "experimental": "(§1) To determine the cardiovascular actions, the following investigations were carried out: in in vitro investigations on cells of vascular origin, the influx on guanylate cyclase-dependent cGMP formation was tested with and without NO donor. The anti-aggregatory properties were shown on human platelets stimulated with collagen. The vasorelaxant action was determined in rabbit aortal rings precontracted with phenylephrine. The hypotentive action was investigated in anaesthetized rats.\nMale Wistar rats having a body weight of 300-350 g are anaesthetized with thiopental (100 mg/kg i.p.) After tracheotomy, a catheter is inserted in the femoral artery for blood pressure measurement. The substances to be tested are administered orally in various doses by means of stomach tube as a suspension in Tylose solution."}, "[1]": {"tested_on": "soluble guanylate cyclase", "assay": "Stimulation of soluble guanylate cyclase in primary endothelial cells (intracellular cGMP)", "assay_type": "cell-based", "conditions": "primary rabbit aortic endothelial cells, test substance final concentration 1 μM, 10 min incubation, with or without NO donor (SNP 1 μM)", "experimental": "as §1\nPrimary endothelial cells were isolated from rabbit aortas by treatment with collagenase soln. The cells were then cultured in culture medium at 37° C./5% CO2 until confluence was reached. For the investigations, the cells were passaged, inoculated into 24-hole cell culture plates and subcultured until reaching confluence (˜2×10^5 cells/hollow). For the stimulation of endothelial guanylate cyclase, the culture medium was aspirated and the cells were washed once with Ringer solution. After removing the Ringer solution, the cells were incubated for 10 minutes at 37° C./5% CO2 in stimulation buffer with or without NO donor (sodium nitroprusside, SNP, 1 μM). […] The supernatants containing the intracellular cGMP were then removed and the cGMP concentration was determined by means of the cGMP-SPA system (Amersham Buchler, Brunswick)."}}}
{"smiles": "CN(C)c1ncnc2c1c(-c1ccc(CO)o1)nn2Cc1ccccc1F", "note": "[Example 37]", "values": [{"measurement": "melting point", "value": 94, "unit": "°C"}]}
{"smiles": "[O-][S+](NC1CCCCCC1)c1ccc(-c2nn(Cc3ccccc3F)c3ncccc23)o1", "note": "(centres unmarked) [Example 60]", "values": [{"measurement": "melting point", "value": 161, "unit": "°C"}]}
{"smiles": "Nc1ncnc2c1c(-c1ccc(CO)o1)nn2Cc1ccccc1", "note": "[Example 35]", "values": [{"measurement": "melting point", "value": 213, "unit": "°C"}]}
{"smiles": "O=CNc1nc(-c2ccccc2)nc2c1c(-c1ccc(CO)o1)nn2Cc1ccccc1F", "note": "[Example 40]", "values": [{"measurement": "melting point", "value": 189, "unit": "°C"}]}
{"smiles": "Cc1coc(-c2nn(Cc3ccccc3F)c3ncccc23)n1", "note": "[Example 67]", "values": [{"measurement": "melting point", "value": 106, "unit": "°C"}]}
{"smiles": "COCCOc1cnc2c(c1)c(-c1ccc(CO)o1)nn2Cc1ccccc1F", "note": "[Example 42]", "values": [{"measurement": "melting point", "value": 106, "unit": "°C"}]}
{"smiles": "OCc1ccc(-c2nn(Cc3ccccc3)c3ncccc23)o1", "note": "[Example 13, 1-Benzyl-3-(5-hydroxymethyl-2-furyl)-1-H-pyrazolo[3,4-b]pyridine]", "values": [{"measurement": "Max blood pressure fall", "setting": "anaesthetized rats; dose 10 mg/kg", "value": "−13", "unit": "mm Hg"}, {"measurement": "Time (of max blood pressure fall)", "setting": "anaesthetized rats; dose 10 mg/kg", "value": 60, "unit": "min"}, {"measurement": "Max blood pressure fall", "setting": "anaesthetized rats; dose 30 mg/kg", "value": "−23", "unit": "mm Hg"}, {"measurement": "Time (of max blood pressure fall)", "setting": "anaesthetized rats; dose 30 mg/kg", "value": 60, "unit": "min"}]}
{"smiles": "Nc1ncnc2c1c(-c1ccc(CO)o1)nn2Cc1ccccc1F", "note": "[Example 36]", "values": [{"measurement": "melting point", "value": 207, "unit": "°C"}]}
{"smiles": "CN(C)[S+]([O-])c1ccc(-c2nn(Cc3ccccc3F)c3ncccc23)o1", "note": "(centres unmarked) [Example 50]", "values": [{"measurement": "melting point", "value": 107, "unit": "°C"}]}
{"smiles": "CN1CCC([S+]([O-])c2ccc(-c3nn(Cc4ccccc4F)c4ncccc34)o2)CC1", "note": "(centres unmarked) [Example 52]", "values": [{"measurement": "melting point", "value": 279, "unit": "°C"}]}
{"smiles": "[O-][S+](NC1CC1)c1ccc(-c2nn(Cc3ccccc3F)c3ncccc23)o1", "note": "(centres unmarked) [Example 57]", "values": [{"measurement": "melting point", "value": 138, "unit": "°C"}]}
{"smiles": "[O-][S+](c1ccc(-c2nn(Cc3ccccc3F)c3ncccc23)o1)N1CCOCC1", "note": "(centres unmarked) [Example 54]", "values": [{"measurement": "melting point", "value": 122, "unit": "°C"}]}
{"smiles": "[O-][S+](NCc1cccc2ccccc12)c1ccc(-c2nn(Cc3ccccc3F)c3ncccc23)o1", "note": "(centres unmarked) [Example 63]", "values": [{"measurement": "melting point", "value": 158, "unit": "°C"}]}
{"smiles": "CC(C)NS(=O)(=O)c1ccc(-c2nn(Cc3ccccc3F)c3ncccc23)o1", "note": "[Example 61]", "values": [{"measurement": "melting point", "value": 109, "unit": "°C"}]}
{"smiles": "CC(C)CN[S+]([O-])c1ccc(-c2nn(Cc3ccccc3F)c3ncccc23)o1", "note": "(centres unmarked) [Example 58]", "values": [{"measurement": "melting point", "value": 109, "unit": "°C"}]}
{"smiles": "Nc1nc(-c2ccccc2)nc2c1c(-c1ccc(CO)o1)nn2Cc1ccccc1F", "note": "[Example 39]", "values": [{"measurement": "melting point", "value": 225, "unit": "°C"}]}
{"smiles": "[O-][S+](c1ccc(-c2nn(Cc3ccccc3F)c3ncccc23)o1)N1CCCC1", "note": "(centres unmarked) [Example 65]", "values": [{"measurement": "melting point", "value": 107, "unit": "°C"}]}
{"smiles": "CCCCCCCCN[S+]([O-])c1ccc(-c2nn(Cc3ccccc3F)c3ncccc23)o1", "note": "(centres unmarked) [Example 53]", "values": [{"measurement": "melting point", "value": 69, "unit": "°C"}]}
{"smiles": "[O-][S+](Nc1cccc(Cl)c1)c1ccc(-c2nn(Cc3ccccc3F)c3ncccc23)o1", "note": "(centres unmarked) [Example 66]", "values": [{"measurement": "melting point", "value": 110, "unit": "°C"}]}
{"smiles": "Cc1nc(-c2nn(Cc3ccccc3F)c3ncccc23)oc1CO", "note": "[Example 68]", "values": [{"measurement": "melting point", "value": 145, "unit": "°C"}]}
{"smiles": "[O-][S+](NCc1ccccc1)c1ccc(-c2nn(Cc3ccccc3F)c3ncccc23)o1", "note": "(centres unmarked) [Example 51]", "values": [{"measurement": "melting point", "value": 126, "unit": "°C"}]}
{"smiles": "Cc1nc2c(c(-c3ccc(CO)o3)nn2Cc2ccccc2)c(C)c1C", "note": "[Example 44]", "values": [{"measurement": "melting point", "value": 180, "unit": "°C"}]}
{"smiles": "Cc1cc(C)c2c(-c3ccc(CO)o3)nn(Cc3ccccc3)c2n1", "note": "[Example 43]", "values": [{"measurement": "melting point", "value": 155, "unit": "°C"}]}
{"smiles": "Nc1nc(N)c2c(-c3ccc(CO)o3)nn(Cc3ccccc3F)c2n1", "note": "[Example 38]", "values": [{"measurement": "melting point", "value": 205, "unit": "°C"}]}
{"smiles": "CC(N[S+]([O-])c1ccc(-c2nn(Cc3ccccc3F)c3ncccc23)o1)c1ccccc1", "note": "(centres unmarked) [Example 64]", "values": [{"measurement": "melting point", "value": 132, "unit": "°C"}]}
{"smiles": "OCc1ccc(-c2nn(Cc3ccccc3)c3ncncc23)o1", "note": "[Example 34]", "values": [{"measurement": "melting point", "value": 165, "unit": "°C"}]}
{"smiles": "CCCCCCN[S+]([O-])c1ccc(-c2nn(Cc3ccccc3F)c3ncccc23)o1", "note": "(centres unmarked) [Example 59]", "values": [{"measurement": "melting point", "value": 114, "unit": "°C"}]}
{"smiles": "CC(C)N[S+]([O-])c1ccc(-c2nn(Cc3ccccc3F)c3ncccc23)o1", "note": "(centres unmarked) [Example 56]", "values": [{"measurement": "melting point", "value": 136, "unit": "°C"}]}
{"smiles": "O=Cc1ccc(-c2nn(Cc3ccccc3F)c3nc(O)ccc23)o1", "note": "[Example 32]", "values": [{"measurement": "cGMP increase (%)", "setting": "[1]", "value": 135, "unit": "%"}]}
